Assays:
Assay in all cases: combination Emax (second highest fraction inhibited in the dose matrix, 72 h); higher = more inhibition; extreme values may be limits of the assay
LN-229 (Glioblastoma) = tested on: LN-229 (Glioblastoma)
Summary of the method: (§1)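 Cell lines in DMEM/F12 or RPMI with 10% FBS were plated in 1536-well plates, held 24 hours at 37°C, 5% CO2, then given two-drug dose matrices for 72 hours (DMSO typically 0.2%). Viability was read by CellTiter-Glo 2.0 luminescence and scaled as inhibition from 0 (vehicle wells) to 1 (blank wells). Combination Emax is the second-highest inhibition in the matrix; Bliss excess is observed combination effect minus expected EA + EB − EA·EB, EA and EB being single-agent effects.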

[1] = tested on: OPM-2 (Plasma Cell Myeloma)
Summary of the method: as §1

[2] = tested on: PC-3_[JPC-3] (Lung Adenocarcinoma)
Summary of the method: as §1

[3] = tested on: PANC-03-27 (Pancreatic Carcinoma)
Summary of the method: as §1

[4] = tested on: KE-37 (T-Lymphoblastic Leukemia)
Summary of the method: as §1

[5] = tested on: REH (B-Lymphoblastic Leukemia)
Summary of the method: as §1

[6] = tested on: CAL-62 (Thyroid Gland Carcinoma)
Summary of the method: as §1

[7] = tested on: HEC-1 (Endometrial Carcinoma)
Summary of the method: as §1

[8] = tested on: RCM-1 (Colorectal Carcinoma)
Summary of the method: as §1

[9] = tested on: FADU (Head and Neck Carcinoma)
Summary of the method: as §1

[10] = tested on: MFE-280 (Endometrial Carcinoma)
Summary of the method: as §1

[11] = tested on: VAL (B-Cell Non-Hodgkin's Lymphoma)
Summary of the method: as §1

[12] = tested on: NCI-H2342 (Lung Adenocarcinoma)
Summary of the method: as §1

SF539 (Glioblastoma) = tested on: SF539 (Glioblastoma)
Summary of the method: as §1

[13] = tested on: SU-DHL-10 (B-Cell Non-Hodgkin's Lymphoma)
Summary of the method: as §1

[14] = tested on: L-1236 (Hodgkin's Lymphoma)
Summary of the method: as §1

[15] = tested on: OAW-42 (Ovarian Carcinoma)
Summary of the method: as §1

[16] = tested on: NCI-H446 (Small Cell Lung Carcinoma)
Summary of the method: as §1

SF268 (Low Grade Glioma) = tested on: SF268 (Low Grade Glioma)
Summary of the method: as §1

[17] = tested on: TE-8 (Esophageal Squamous Cell Carcinoma)
Summary of the method: as §1

| SMILES | combination Emax (LN-229 (Glioblastoma)) | combination Emax [1] | combination Emax [2] | combination Emax [3] | combination Emax [4] | combination Emax [5] | combination Emax [6] | combination Emax [7] | combination Emax [8] | combination Emax [9] | combination Emax [10] | combination Emax [11] | combination Emax [12] | combination Emax (SF539 (Glioblastoma)) | combination Emax [13] | combination Emax [14] | combination Emax [15] | combination Emax [16] | combination Emax (SF268 (Low Grade Glioma)) | combination Emax [17] |
| --- | --- | --- | --- | --- | --- | --- | --- | --- | --- | --- | --- | --- | --- | --- | --- | --- | --- | --- | --- | --- |
| CN(C)CCCOc1ccc(-c2ccc3ncc4c(c3c2)n(C2CCOCC2)c(=O)n4C)cn1 [AZD0156] + O=C(c1cc(Cc2n[nH]c(=O)c3ccccc23)ccc1F)N1CCN(C(=O)C2CC2)CC1 [Olaparib] (first compound max 3 µM, partner max 3 µM) | 0.107 | 0.231 | 0.181 | 0.225 | 0.415 | 0.457 | 0.342 | 0.139 | 0.287 | 0.258 | 0.312 | 0.542 | 0.0678 | 0.501 | 0.342 | 0.326 | 0.282 | 0.362 | 0.21 | – |
| C=CCn1c(=O)c2cnc(Nc3ccc(N4CCN(C)CC4)cc3)nc2n1-c1cccc(C(C)(C)O)n1 [AZD1775] + C1CN(CCC1(C(=O)N[C@@H](CCO)C2=CC=C(C=C2)Cl)N)C3=NC=NC4=C3C=CN4 [Capivasertib] (first compound max 3 µM, partner max 3 µM) | 0.419 | 0.967 | 0.577 | 0.771 | 1 | 0.93 | 0.868 | 0.615 | 0.628 | 0.644 | 0.451 | 0.841 | 0.282 | 0.967 | 1 | 0.876 | 0.467 | 0.972 | 0.456 | – |
| CN(CCO)CC[C@H](CSc1ccccc1)Nc1ccc(S(=O)(=O)NC(=O)c2ccc(N3CCC([C@@H](O)c4ccccc4-c4ccc(Cl)cc4)CC3)cc2)cc1S(=O)(=O)C(F)(F)F [AZD4320] + C1CN(CCC1(C(=O)N[C@@H](CCO)C2=CC=C(C=C2)Cl)N)C3=NC=NC4=C3C=CN4 [Capivasertib] (first compound max 1 µM, 7x7, partner max 3 µM) | 0 | 0.955 | 0.152 | 0.25 | 1 | 1 | 0.152 | 0.295 | 0.343 | 0.116 | 0.88 | 1 | 0.3 | 0.461 | 0.97 | 0.965 | 0.282 | 0.78 | 0.211 | 0.349 |
| CN(CCO)CC[C@H](CSc1ccccc1)Nc1ccc(S(=O)(=O)NC(=O)c2ccc(N3CCC([C@@H](O)c4ccccc4-c4ccc(Cl)cc4)CC3)cc2)cc1S(=O)(=O)C(F)(F)F [AZD4320] + C=CCn1c(=O)c2cnc(Nc3ccc(N4CCN(C)CC4)cc3)nc2n1-c1cccc(C(C)(C)O)n1 [AZD1775] (first compound max 1 µM, partner max 1 µM) | 0.428 | 0.955 | 0.411 | 0.985 | 1 | 1 | 0.878 | 0.456 | 0.717 | 0.453 | 0.953 | 1 | 0.38 | 0.978 | 0.992 | 1 | 0.496 | 0.963 | 0.587 | 0.932 |
| CN(CCO)CC[C@H](CSc1ccccc1)Nc1ccc(S(=O)(=O)NC(=O)c2ccc(N3CCC([C@@H](O)c4ccccc4-c4ccc(Cl)cc4)CC3)cc2)cc1S(=O)(=O)C(F)(F)F [AZD4320] + CCN(CCO)CCCOc1ccc2c(Nc3cc(CC(=O)Nc4cccc(F)c4)[nH]n3)ncnc2c1 [AZD2811] (first compound max 1 µM, 7x7, partner max 1 µM) | 0.185 | 0.693 | 0.147 | 0.638 | 1 | 1 | 0.488 | 0.494 | 0.545 | 0.245 | 0.888 | 1 | 0.384 | 0.584 | 0.759 | 0.961 | 0.14 | 0.991 | 0.519 | 0.583 |
| CN(CCO)CC[C@H](CSc1ccccc1)Nc1ccc(S(=O)(=O)NC(=O)c2ccc(N3CCC([C@@H](O)c4ccccc4-c4ccc(Cl)cc4)CC3)cc2)cc1S(=O)(=O)C(F)(F)F [AZD4320] + Cn1cnc2c(F)c(Nc3ccc(Br)cc3Cl)c(C(=O)NOCCO)cc21 [Selumetinib] (first compound max 1 µM, 7x7, partner max 3 µM) | 0.397 | 0.556 | 0.571 | 0.793 | 1 | 0.992 | – | 0.366 | 0.785 | 0.832 | 0.705 | 1 | 0.423 | 0.346 | 0.617 | 0.999 | 0.436 | 0.758 | 0.69 | 0.502 |
| COc1nnc2ccc(N3CCC(c4ccc(OCCN5CCN(C)C(=O)[C@H]5C)cc4)CC3)nn12 [AZD5153] + CN(CC[C@H](CSC1=CC=CC=C1)NC2=C(C=C(C=C2)S(=O)(=O)NC(=O)C3=CC=C(C=C3)N4CCC(CC4)[C@H](C5=CC=CC=C5C6=CC=C(C=C6)Cl)O)S(=O)(=O)C(F)(F)F)CCO [AZD4320] (first compound max 1 µM, 7x7, partner max 1 µM) | 0.335 | – | – | – | 1 | – | – | 0.983 | – | 0.45 | – | – | – | – | 1 | – | 0.41 | 0.984 | 0.552 | – |
| Cc1nc(Nc2ncc(C(=O)Nc3c(C)cccc3Cl)s2)cc(N2CCN(CCO)CC2)n1 [Dasatinib] + CC(=O)Nc1cccc(-n2c(=O)n(C3CC3)c(=O)c3c(Nc4ccc(I)cc4F)n(C)c(=O)c(C)c32)c1 [Trametinib] (first compound max 2 µM, 7x7, partner max 1 µM) | 0.548 | 0.801 | 0.738 | 0.713 | 0.32 | 0.089 | 0.955 | 0.295 | 0.798 | 0.515 | 0.486 | 0.691 | 0.232 | 0.602 | 0.837 | 0.243 | 0.722 | 0.444 | – | 0.865 |
| CC(=O)c1c(C)c2cnc(Nc3ccc(N4CCNCC4)cn3)nc2n(C2CCCC2)c1=O [Palbociclib] + CN(CC[C@H](CSC1=CC=CC=C1)NC2=C(C=C(C=C2)S(=O)(=O)NC(=O)C3=CC=C(C=C3)N4CCC(CC4)[C@H](C5=CC=CC=C5C6=CC=C(C=C6)Cl)O)S(=O)(=O)C(F)(F)F)CCO [AZD4320] (first compound max 10 µM, 7x7, partner max 1 µM) | 0.126 | – | – | – | 1 | – | – | 0.298 | – | 0.356 | – | – | – | – | 0.995 | – | 0.562 | 0.887 | 0.35 | – |
| COc1cc2c(cc1OCCCCCOc1cc3c(cc1OC)C(=O)N1C=C(C)C[C@H]1C=N3)N=C[C@@H]1CC(C)=CN1C2=O [SG3199] + O=C(c1cc(Cc2n[nH]c(=O)c3ccccc23)ccc1F)N1CCN(C(=O)C2CC2)CC1 [Olaparib] (first compound max 0.001 µM, 7x7, partner max 10 µM) | 0.0777 | 0.0651 | 0.193 | 0.0754 | 0.348 | 0.197 | 0.102 | 0.176 | 0.0628 | 0.115 | 0.184 | 0.57 | 0.0836 | 0.268 | 0.23 | 0.196 | – | 0.285 | 0.115 | 0.109 |
| CCc1c2c(nc3ccc(O)cc13)-c1cc3c(c(=O)n1C2)COC(=O)[C@]3(O)CC [SN-38] + CN(C)CCCOc1ccc(-c2ccc3ncc4c(c3c2)n(C2CCOCC2)c(=O)n4C)cn1 [AZD0156] (first compound max 0.3 µM, 7x7, partner max 1 µM) | 0.283 | 0.772 | 0.732 | 0.773 | 1 | 1 | 0.872 | 0.398 | 0.86 | 1 | 0.611 | 0.944 | 0.225 | 0.895 | 0.986 | 0.76 | – | 0.818 | 0.902 | 0.69 |
| C[C@@H](c1ccc2nccn2c1)n1nnc2ncc(-c3cnn(C)c3)nc21 [Savolitinib] + CN(CC[C@H](CSC1=CC=CC=C1)NC2=C(C=C(C=C2)S(=O)(=O)NC(=O)C3=CC=C(C=C3)N4CCC(CC4)[C@H](C5=CC=CC=C5C6=CC=C(C=C6)Cl)O)S(=O)(=O)C(F)(F)F)CCO [AZD4320] (first compound max 1 µM, 7x7, partner max 1 µM) | 0.187 | – | – | – | 1 | – | – | 0.423 | – | 0.221 | – | – | – | – | 0.0854 | – | 0.275 | 0.694 | 0.172 | – |

— the supplement of paper PMC11061612
